Source: US4368325A, “Processes for preparing 3-cephem compounds” (Fujisawa Pharmaceutical Co., Ltd., priority 1980, dated 1983)
Converted amounts (≈) assume the structure as drawn.

Tests used:
Assay in all cases: In vitro antibacterial activity, two-fold agar-plate dilution method
Format in all cases: cell-based
Serratia marcescens 35 = settings: HI-agar, 37° C., 20 hours, 100-fold dilution of overnight culture, read-out: minimal inhibitory concentration (MIC)
Description: (§1) In vitro antibacterial activity was determined by the two-fold agar-plate dilution method as described below. One loopful of the 100-fold dilution of an overnight culture of each test strain in Trypticasesoy broth was streaked on heart infusion agar (HI-agar) containing graded concentrations of the test compound and incubated at 37° C. for 20 hours. The minimal inhibitory concentration (MIC) was expressed in μg/ml.

[1] = test system: Staphylococcus aureus 209P JC-1; settings: HI-agar, 37° C., 20 hours, 100-fold dilution of overnight culture, read-out: minimal inhibitory concentration (MIC)
Description: as §1

Klebsiella pneumoniae 20 = settings: HI-agar, 37° C., 20 hours, 100-fold dilution of overnight culture, read-out: minimal inhibitory concentration (MIC)
Description: as §1

[2] = test system: Proteus vulgaris IAM-1025; settings: IAM1025, HI-agar, 37° C., 20 hours, 100-fold dilution of overnight culture, read-out: minimal inhibitory concentration (MIC)
Description: as §1

Proteus mirabilis 18 = settings: HI-agar, 37° C., 20 hours, 100-fold dilution of overnight culture, read-out: minimal inhibitory concentration (MIC)
Description: as §1

[3] = test system: Pseudomonus aeruginosa NCTC-10490; settings: HI-agar, 37° C., 20 hours, 100-fold dilution of overnight culture, read-out: minimal inhibitory concentration (MIC)
Description: as §1

[4] = test system: Escherichia coli. NIHJ JC-2; settings: NIHJJC2, HI-agar, 37° C., 20 hours, 100-fold dilution of overnight culture, read-out: minimal inhibitory concentration (MIC)
Description: as §1

MIC (Serratia marcescens 35): 1.56 µg/mL (≈ 4.07 µM) | MIC [1]: 6.25 µg/mL (≈ 16.3 µM) | MIC (Klebsiella pneumoniae 20): ≤ 0.025 µg/mL | MIC [2]: ≤ 0.025 µg/mL | MIC (Proteus mirabilis 18): ≤ 0.025 µg/mL | MIC [3]: 0.39 µg/mL (≈ 1.02 µM) | MIC [4]: ≤ 0.025 µg/mL
SMILES: CO/N=C(\C(=O)NC1C(=O)N2C(C(=O)O)=CCSC12)c1csc(N)n1 (stereo not drawn) [7-[2-(2-aminothiazol-4-yl)-2-methoxyiminoacetamido]-3-cephem-4-carboxylic acid (syn isomer)]
